Assay results published in US20040235759A1, “Use of azalide antibiotic compositions for treating or preventing a bacterial or protozoal infection in mammals” (Pfizer Inc, priority 2000, published 2004).

Tests used:
[1] = Equilibration of N-(n-propyl) isomer I and isomer II in heated aqueous acid solution, HPLC (Example 2, Table 1); format: physicochemical; conditions: N-(n-propyl) isomer I prior to equilibration, for comparison
Source text: The equilibrium ratio of N-(n-propyl) isomer I and N-(n-propyl) isomer II (about 90%±4% to about 10%±4%, respectively) was consistent for all experiments. […] Without being bound by any theory, lower equilibration temperatures or lower pH values generally result in substantially longer equilibration times. Equilibration time can also depend on, inter alia, the concentration of starting material, and the type and concentration of the acid used. N-(n-propyl) isomer I at a concentration of up to about 300 mg per mL of composition was heated to a temperature of about 40° C. to about 80° C. in the presence of one or more acids at a concentration of about 0.2 mmol to about 1.0 mmol per mL of mixture and with a sufficient quantity of hydrochloric acid to achieve a pH of about 6.5 to about 7.5 for up to about 20 hours to produce an equilibrium mixture of isomers that is about 95%-98% pure. Equilibration kinetic parameters and impurity levels for equilibration of N-(n-propyl) isomer I and N-(n-propyl) isomer II were determined as a function of pH, equilibration temperature, type of acid, and N-(n-propyl) isomer I concentration and are listed in Table 1. […]
Equilibrium mixtures of isomers were prepared and assayed as follows. […] Where 0.1 M citric or tartaric acid was used, hydrochloric acid was also added in a quantity sufficient to obtain the pH listed in column 2. […]

[2] = system: Eimeria bovis, Eimeria aubumenis and Eimeria zuernii coccidia oocysts; test: Calves challenged with a coccidia challenge culture (Example 9); format: in vivo
Source text: Sixty naive calves weighing approximately 110-125 kg were purchased from local dairies, weighed, identified by ear tag, and observed for general health assessments. Animals considered physically abnormal, undersized or moribund on arrival were excluded from the study. Calves were housed in five holding pens (12 animals/pen). Calves were held for 7 days prior to challenge in order to acclimate them to the facility. Prior to challenge, calves were excluded from the study at the discretion of the investigator. On days −6, −4 and −2 pre-challenge, fecal samples were obtained for semi-quantitative oocyst counts. On day −4 pre-challenge, oocysts, if present, were speciated.
On day 8 post-arrival (study day 0), calves were inoculated orally with the Eimeria culture. Beginning on day 1, temperatures were determined and recorded at approximately the same time each day for the duration of the study. Attitude, hydration and fecal consistency scores were evaluated daily. Post-challenge, fecal samples were collected on days 2, 4, 6, 8 and 10. Oocysts were speciated on day 10 post-challenge. On day 10 post-challenge, fifty animals were randomly allotted to one of five treatment groups using a randomized block allotment. Treatments were equally represented in each pen. Animals were injected subcutaneously with a single dose of one of the following solutions: (1) about 4 mL of sterile 0.9% sodium chloride (saline); (2) about 4 mL of 300 mg/mL MICOTIL at a dose of 10 mg/kg of body weight; (3) about 6 mL of the pharmaceutical composition at a dose of 5 mg/kg of body weight; (4) about 3 mL of the pharmaceutical composition at a dose of 2.5 mg/kg of body weight; or animals were drenched dosed orally with (5) about 2 oz. of amprolium in a 9.6% oral solution at a dose of 10 mg/kg of body weight. Only amprolium was re-administered on each of the following four days. All other treatments were given in a single dose injection. Fecal samples were examined semi-quantitatively post-treatment for shedding of coccidia oocysts on days 12, 14, 16 and 18. Beginning on day 19 and continuing through day 28, daily fecal samples were evaluated for semi-quantitative counts. Speciation of shed oocysts was performed on days 19-21, 23, 26 and 28. Calves that died during the course of the study or that were euthanized due to a moribund condition associated with clinical coccidiosis were counted as mortalities. Mortalities were necropsied and gross findings were recorded. At the termination of the study on day 28, all remaining animals were weighed, euthanized and examined post-mortem.
Assessment of drug efficacy was determined based upon analysis of mean daily clinical scores, temperature and oocyst shedding. Differences in clinical scores and temperature between different treatments were evaluated by repeated measures ANOVA. Differences in weight gain were determined by factorial ANOVA. Comparisons of mortality rates and oocyst shedding between treatments was performed using Chi-Square analysis and Fisher's Exact test.

Pasteurella multocida = test: Therapeutic efficacy in swine infected with Pasteurella multocida (Example 5); format: in vivo; conditions: pigs, P. multocida challenge, 1.25 mg/kg intramuscular
Source text: By Apotency-actual@ number, as used herein, is meant the actual mg per mL of the substantially pure mixture or equilibrium mixture of N-(n-propyl) isomer I and N-(n-propyl) isomer II present in the pharmaceutical composition.
Fifty clinically normal and healthy pigs having a consistent body weight of approximately 10 kg were selected from a pool of 60 animals. Selected animals (10 per treatment) were randomly assigned to treatment and sorted into pens accordingly. On day 0, each animal was inoculated endotracheally with 25 mL of Pasteurella multocida challenge culture. […] Temperatures and illness scores were recorded 6 hours post-challenge and once daily beginning at 24 hours post-challenge. […] An estimate of the percentage of affected lung tissue was determined and recorded. […]
Assessment of efficacy was determined based upon comparison of mean daily illness scores, temperatures and lung-lesion scores. Differences between treatments for mean daily rectal temperatures and illness scores were evaluated by a repeated measures analysis of variance. Differences between mean lung-lesion scores for each treatment were evaluated using a factorial analysis of variance procedure. […]

[3] = system: Actinobacillus pleuropneumoniae; test: Pigs at a high risk for developing an Actinobacillus pleuropneumoniae infection, seeder-pig exposure (Example 8); format: in vivo
Source text: One hundred and thirty clinically healthy pigs having an average body weight of approximately 10 kg were purchased, identified with an ear tag and acclimated to the study site 2 days before the study began. On day −1, all animals were weighed and 100 animals were selected for consistency of body weight (about 10 kg) and lack of signs of clinical abnormalities. Selected animals (20 per treatment) were randomly assigned to treatment and sorted into individual pens. A group of 25 additional animals were randomly assigned as seeder pigs (5 per treatment). […] Temperatures and illness scores were recorded daily. […] An estimate of the percentage of affected lung tissue was determined and recorded. […]
Assessment of efficacy was determined based upon comparison of mean daily illness scores, temperatures and lung-lesion scores. Differences between treatments for mean daily rectal temperatures and illness scores were evaluated by a repeated-measures analysis of variance. […]

[4] = amprolium, MICOTIL, or pharmaceutical composition at either dose level

CCCNC[C@]1(O)[C@H](C)O[C@@H](O[C@H]2[C@H](C)[C@@H](O[C@@H]3O[C@H](C)C[C@H](N(C)C)[C@H]3O)[C@](C)(O)C[C@@H](C)CN[C@H](C)[C@@H](O)[C@](C)(O)[C@@H](CC)OC(=O)[C@@H]2C)C[C@@]1(C)OC [DS]
% Equilibrium mixture of isomers [1]: 98.39% | % Impurities [1]: 1.61%

CCCc1ncc(C[n+]2ccccc2C)c(N)n1 [Amprolium, amprolium]
21-day Average Daily Weight Gain ([2]; 10 mg/kg oral drench from day 10 post-challenge, re-administered on each of the following four days): 0.60 kg | mean daily hydration scores compared to the saline treated calves ([2]; amprolium 10 mg/kg oral): statistically significant reductions (p<0.05) | mean daily attitude scores compared to the saline controls [2, 4]: significant reductions (p<0.05) | mean daily fecal consistency scores compared to the saline treated calves [2, 4]: statistically significant reductions (p<0.05) | oocyst shedding compared to the saline controls ([2]; days 19-28 post-challenge): decreased

CN1C[C@@H]2C[C@H]1CN2c1cc2c(cc1F)c(=O)c(C(=O)O)cn2C1CC1 [Danofloxacin, danofloxacin]
Mean Lung Lesion Score (%) (Pasteurella multocida; re-administered on each of the following two days): 1.9% | mean daily illness scores (Pasteurella multocida; three doses, saline about 3): about 2 | Mean Lung-lesion Score ([3]; pigs exposed to A. pleuropneumoniae seeder pigs, 1.25 mg/kg intramuscular, re-administered on each of the following two days): 4.8% | mean daily illness scores in the saline-treated pigs compared to treated animals ([3]; pigs, danofloxacin 1.25 mg/kg x3, pharmaceutical composition 2.5, 5, 10 mg/kg): Statistically significant (p<0.05) elevations
